This is an account of results in US12091425B2 (AMGEN INC., priority 2016, dated 2024).

The target of experiment [1] is T1, Mcl-1/Bim interaction, recombinant human Mcl-1 (171-327) (Homo sapiens, UniProt Q07820).
T1 construct: made in house
Description: Cell free Mcl-1: Bim Affinity Assay (Mcl-1 HTRF). The class given is binding. The method in brief:
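Biotin-Bim(51-76) peptide, TR-FRET readout, overnight incubation; IC50 from duplicate competition curves, 4-parameter fit.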

For experiment [2], the system named is OPM-2 human multiple myeloma cell line. Description: Cell Viability Assay (OPM-2 10 FBS). The class given is cell-based. The note with it: OPM-2 cells, CellTiter-Glo. The method in brief: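 ATP-based luminescence (CellTiter-Glo) measured after a 16 h compound treatment of OPM-2 cells seeded at 3000 cells/well in 10% FBS medium. IC50 values derived by 4-parameter logistic fitting of serial dilutions.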
(In ATP-based viability assays light output follows the ATP content of the culture.)

Setting [3] is: cell free Mcl-1:Bim TR-FRET, recombinant human Mcl-1 (171-327).
Where [4] appears, read: Homo sapiens, OPM-2, 16 h, 16 h.
Where [5] appears, read: TR-FRET, 0.1 nM Mcl-1 (171-327), 0.05 nM biotin-Bim (51-76).
Setting [6] is: Homo sapiens, OPM-2, 16 h, 16 h incubation.

T1 sequence (Q07820 171-327): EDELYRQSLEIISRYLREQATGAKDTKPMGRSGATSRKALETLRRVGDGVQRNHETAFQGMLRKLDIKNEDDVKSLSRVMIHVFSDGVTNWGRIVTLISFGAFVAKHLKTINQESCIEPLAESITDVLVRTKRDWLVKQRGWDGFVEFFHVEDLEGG

Usually IC50 stands for the point on the concentration scale where inhibition reaches its midpoint. For `CC[C@@H]1CC/C=C/[C@H](O)[C@@H]2CC[C@H]2CN2C[C@@]3(CCCc4cc(Cl)ccc43)COc3cc(F)c(cc32)C(=O)NS1(=O)=O` [Example 655, (1S,3′R,6′R,7′S,8′E,12′R)-6-chloro-12′-ethyl-17′-fluoro-7′-hydroxy-3,4-dihydro-2H,15′H-spiro[naphthalene-1,22′-[20]oxa[13]thia[1,14]diazatetracyclo[14.7.2.0^3,6.0^19,24]pentacosa [8,16,18,24]tetraen]-15′-one 13′,13′-dioxide], the IC50 amounted to 0.884 nM in experiment [1] (setting [3]) and 947 nM in experiment [2] (setting [4]).
As to `O=C1NS(=O)(=O)CCC[C@]2(O)CCO[C@H](C2)[C@@H]2CC[C@H]2CN2C[C@@]3(CCCc4cc(Cl)ccc43)COc3ccc1cc32` (single isomer, unassigned) [Example 901], the values for the IC50 in experiment [1] (setting [3]) and in experiment [2] (16 h) were 0.568 nM and 5500 nM, respectively.
As for `O=C1NS(=O)(=O)[C@@H](CCS(=O)(=O)Cc2ccccc2)CC/C=C/[C@H](O)[C@@H]2CC[C@H]2CN2C[C@@]3(CCCc4cc(Cl)ccc43)COc3ccc1cc32` (single isomer, unassigned) [Example 163], the IC50 in experiment [1] (setting [5]) came out at 5.07 nM; in experiment [2] (16 h), 18900 nM.
As to `C[C@@H]1[C@@H](C)C/C=C/[C@H](OCCN2CC(F)(F)C2)[C@@H]2CC[C@H]2CN2C[C@@]3(CCCc4cc(Cl)ccc43)COc3ccc(cc32)C(=O)NS1(=O)=O` [Example 9, (1S,3′R,6′R,7′S,8′E,11′S,12′R)-6-chloro-7′-(2-(3,3-difluoro-1-azetidinyl)ethoxy)-11′,12′-dimethyl-3,4-dihydro-2H,15′H-spiro[naphthalene-1,22′-[20]oxa[13]thia[1,14]diazatetracyclo[14.7.2.0^3,6.0^19,24]pentacosa[8,16,18,24]tetraen]-15′-one 13′,13′-dioxide], the values for the half-maximal inhibitory concentration (IC50) in experiment [1] (setting [5]) and in experiment [2] (setting [4]) were 0.63 nM and 155 nM, respectively.
For the compound `C[C@@H]1C[C@@H](C)/C=C/[C@H](OCCN2CCOCC2)[C@@H]2CC[C@H]2CN2C[C@@]3(CCCc4cc(Cl)ccc43)COc3ccc(cc32)C(=O)NS1(=O)=O` [Example 1018, (1S,3′R,6′R,7′S,8′E,10′R,12′R)-6-chloro-10′,12′-dimethyl-7′-(2-(4-morpholinyl)ethoxy)-3,4-dihydro-2H,15′H-spiro[naphthalene-1,22′-[20]oxa[13]thia[1,14]diazatetracyclo[14.7.2.0^3,6.0^19,24]pentacosa [8,16,18,24]tetraen]-15′-one 13′,13′-dioxide], the IC50 in experiment [1] (setting [5]) worked out at 0.356 nM; in experiment [2] (setting [6]) it was 285 nM.
As for `C[C@@H]1[C@@H](C)C/C=C/[C@H](OCCN2CCCCC2=O)[C@@H]2CC[C@H]2CN2C[C@@]3(CCCc4cc(Cl)ccc43)COc3ccc(cc32)C(=O)NS1(=O)=O` [Example 728, (1S,3′R,6′R,7′S,8′E,11′S,12′R)-6-chloro-11′,12′-dimethyl-7′-(2-(2-oxo-1-piperidinyl)ethoxy)-3,4-dihydro-2H,15′H-spiro[naphthalene-1,22′-[20]oxa[13]thia[1,14]diazatetracyclo[14.7.2.0^3,6.0^19,24]pentacosa [8,16,18,24]tetraen]-15′-one-13′, 13′-dioxide], the results for the IC50 in experiment [1] (setting [3]) and in experiment [2] (setting [4]) were 0.437 nM and 268 nM, respectively.
`CC[C@@H]1CC/C=C/[C@H](OCc2ncco2)[C@@H]2CC[C@H]2CN2C[C@@]3(CCCc4cc(Cl)ccc43)COc3ccc(cc32)C(=O)NS1(=O)=O` [Example 986, (1S,3′R,6′R,7′S,8′E,12′R)-6-chloro-12′-ethyl-7′-(1,3-oxazol-2-ylmethoxy)-3,4-dihydro-2H,15′H-spiro[naphthalene-1,22′-[20]oxa[13]thia[1,14]diazatetracyclo[14.7.2.0^3,6.0^19,24]pentacosa [8,16,18,24]tetraen]-15′-one 13′,13′-dioxide]: the IC50 came out at 0.476 nM in experiment [1] (setting [5]) and 270 nM in experiment [2] (setting [6]).
Turning to `COC1C=CCC(OC)C(CC2CCCO2)S(=O)(=O)NC(=O)c2ccc3c(c2)N(CC2CCC21)CC1(CCCc2cc(Cl)ccc21)CO3` (single isomer, unassigned) [Example 641], the figures for the IC50 in experiment [1] (setting [3]) and in experiment [2] (setting [4]) were 0.537 nM and 282 nM, respectively.
